In US20240199578A1, “SOLID STATE FORMS OF ZAVEGEPANT AND PROCESS FOR PREPARATION THEREOF” (TEVA CZECH INDUSTRIES S.R.O, priority 2021, published 2024):

Experiment: Stability to polymorphic conversion (heating, grinding, high relative humidity)
Assay type: physicochemical
Details: when heated, during grinding and/or high relative humidity

With `Cc1cc(C[C@@H](NC(=O)N2CCC(c3cc4ccccc4[nH]c3=O)CC2)C(=O)N2CCN(C3CCN(C)CC3)CC2)cc2cn[nH]c12` [Form B] the “stability to polymorphic conversion” value was “particularly stable to polymorphic conversion”.
